Assay results reported in PMC10058761, “Heart-Type Fatty Acid Binding Protein Binds Long-Chain Acylcarnitines and Protects against Lipotoxicity” (International Journal of Molecular Sciences, 2023).

What was measured:
human FABP3 [1] = target: T1, human FABP3 (Homo sapiens, UniProt P05413); assay: ITC assay of ligand binding to apo-FABP3; details: for ΔG / ΔH / −TΔS / N (stoichiometry) / Kd: KPi pH 7.6, 25 °C; for N (stoichiometry): protein assumed 100% active and delipidated
T1 construct: His-tag (N); TEV cleavage site (N); made in house; host or cells: E. coli BL21(DE3)
T1 sequence (P05413 whole entry): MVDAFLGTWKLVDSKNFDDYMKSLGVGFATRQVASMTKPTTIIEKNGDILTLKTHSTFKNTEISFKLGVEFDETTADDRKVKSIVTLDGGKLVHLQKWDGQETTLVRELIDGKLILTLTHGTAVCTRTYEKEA
Protocol: ITC experiments were carried out on the MicroCal™ iTC200 instrument (Malvern Instruments Ltd., Malvern, UK). Experiments were performed in KPi buffer without and with 0.1% (v/v) TX supplement. […] Experiments for the determination of the ΔCp were performed at three different temperatures: 16, 25, and 37 °C. […] Every titration started with a small 0.3 μL injection introduced to compensate for the diffusion effects. One of the following injection profiles was chosen based on the activity of the ligand and binding heat released: 1.2 μL × 32 or 1.5 μL × 26—all with 120 s time spacing between every injection and 600 rpm. Each ligand was titrated at least two times. The reference baseline consisting of small peaks of identical size (titration of the corresponding ligand into the buffer) was subtracted from the data before fitting to correct for the heat of the ligand dilution. The first injection was excluded from each dataset. The final data were fitted to a theoretical titration curve (one set of sites fitting model) using MicroCal Origin 7 SR4 software (OriginLab, Northampton, MA, USA).

human FABP3 [2] = target: T1, human FABP3; assay: ITC competitive binding experiments (FABP3 pre-saturated with a competing ligand); details: FABP3 saturated with C18:1(n-9)t-carnitine, titrated with the FA, KPi + 0.10% TX, 25 °C
Protocol: ITC experiments were carried out on the MicroCal™ iTC200 instrument (Malvern Instruments Ltd., Malvern, UK). Experiments were performed in KPi buffer without and with 0.1% (v/v) TX supplement. All titrations except for the determination of the heat capacity, ΔCp, were performed at 25 °C using 20–120 μM protein. Experiments for the determination of the ΔCp were performed at three different temperatures: 16, 25, and 37 °C. 280 μL of the protein solution in the sample cell were titrated with the ligand solution diluted to 200–1200 μM depending on the enzyme concentration (to achieve a 1:10 or 1:5 ratio). Every titration started with a small 0.3 μL injection introduced to compensate for the diffusion effects. One of the following injection profiles was chosen based on the activity of the ligand and binding heat released: 1.2 μL × 32 or 1.5 μL × 26—all with 120 s time spacing between every injection and 600 rpm. Each ligand was titrated at least two times. The reference baseline consisting of small peaks of identical size (titration of the corresponding ligand into the buffer) was subtracted from the data before fitting to correct for the heat of the ligand dilution. The first injection was excluded from each dataset. […]

human FABP3 [3] = target: T1, human FABP3; assay: Ligand binding by NMR (2D 1H-15N HSQC chemical shift perturbations); details: KPi buffer pH 7.6
Protocol: NMR spectra were acquired on the 600 MHz Bruker Avance Neo spectrometer (Bruker Biospin GmbH, Rheinstetten, Germany) equipped with a 5-mm quadruple-resonance CryoProbe (QCI) with z-gradients. […] All experiments were performed in KPi buffer without or with TX and with the addition of 7% (v/v) D2O, 0.03% (v/v) NaN3, and 0.01% (v/v) SigmaFAST EDTA-free protease inhibitor cocktail to prevent protein degradation. The amount of organic solvent (ethanol or DMSO-d6) was below 2% (v/v) in each experiment.
3D HNCA, 3D HNCO, 3D HN(CA)CO, and 3D CBCA(CO)NH spectra were acquired for the backbone assignment. 3D [^1H,^1H]-nuclear Overhauser spectroscopy (NOESY)-^15N-heteronuclear single-quantum correlation (HSQC) spectrum was acquired using a mixing time of 100 ms and also used in the backbone assignment. 2D ^1H-^15N HSQC spectra were acquired for evaluation of the CSPs caused by the lipid binding. Chemical shifts were referenced internally to the residual water signal at 4.70 ppm relative to the 4,4-dimethyl-4-silapentane-1-sulfonic acid (DSS). […] Other complexes were analyzed by analogy and with the help of 3D [^1H-^1H]-NOESY-^15N-HSQC. All spectra were processed in TopSpin v. 4.1.1. (Bruker, Billerica, MA, USA) and analyzed in CARA 1.9.1. software. Residue-specific protein backbone amide assignment was performed based on the published chemical shifts. CSPs, Δδ, were calculated using Equation (1) with the scaling factor, α, which was set to 0.1 [67, 68]. (1) Δδ=1/2[δH2+α·δN^2],

human FABP3 [4] = target: T1, human FABP3; assay: ITC determination of heat capacity change at 16, 25 and 37 °C; type: binding; details: KPi with 0.1% TX; ΔH at 16, 25, 37 °C, linear regression
Excerpt: Heat capacity changes, ΔCp, are important indicators of the structural changes during ligand-to-protein binding in various environmental conditions and may reflect changes in the static and dynamic properties of the protein [33, 34]. Moreover, it may represent interactions with extra supplements, such as salts and detergents, and larger processes, such as changes in protein folding, solvent-accessible surface area (SASA), or protonation states within the active site. […] Thermodynamic parameters for the remaining LCFAs were determined in the KPi + TX buffer, while LCACs were tested in the KPi buffer without any additive. Figure 7 represents an example of the overlays of the ITC experiments for C18:1(n-9)c and the corresponding LCAC performed at the following temperatures: 16, 25, and 37 °C.
ITC experiments were carried out on the MicroCal™ iTC200 instrument (Malvern Instruments Ltd., Malvern, UK). Experiments were performed in KPi buffer without and with 0.1% (v/v) TX supplement. All titrations except for the determination of the heat capacity, ΔCp, were performed at 25 °C using 20–120 μM protein. Experiments for the determination of the ΔCp were performed at three different temperatures: 16, 25, and 37 °C. 280 μL of the protein solution in the sample cell were titrated with the ligand solution diluted to 200–1200 μM depending on the enzyme concentration (to achieve a 1:10 or 1:5 ratio). Every titration started with a small 0.3 μL injection introduced to compensate for the diffusion effects. One of the following injection profiles was chosen based on the activity of the ligand and binding heat released: 1.2 μL × 32 or 1.5 μL × 26—all with 120 s time spacing between every injection and 600 rpm. Each ligand was titrated at least two times. The reference baseline consisting of small peaks of identical size (titration of the corresponding ligand into the buffer) was subtracted from the data before fitting to correct for the heat of the ligand dilution. The first injection was excluded from each dataset. The final data were fitted to a theoretical titration curve (one set of sites fitting model) using MicroCal Origin 7 SR4 software (OriginLab, Northampton, MA, USA).

Q: Which ΔG (human FABP3 [1]; with 0.1% TX) does the source give for `CCCCCCCCCCCCCCCC(=O)O` [C16:0, palmitate] here?
A: Its ΔG is -9.34 ± 0.07 kcal/mol.

Q: What about the ΔH (human FABP3 [1]; with 0.1% TX) of the same molecule?
A: The ΔH was -8.7 ± 0.9 kcal/mol.

Q: And the “−TΔS” value (human FABP3 [1]; with 0.1% TX)?
A: The value was -0.6 ± 0.8 kcal/mol.

Q: And the “N (stoichiometry)” value (human FABP3 [1]; with 0.1% TX)?
A: The value was 1.0.

Q: What about the “-TΔS” value (human FABP3 [2]; Competitive Binding model) of the same molecule?
A: Its value is 0.2 ± 0.1 kcal/mol.

Q: And the ΔG (human FABP3 [2]; Competitive Binding model)?
A: The ΔG was -11.62 kcal/mol.

Q: And the ΔH (human FABP3 [2]; Competitive Binding model)?
A: The ΔH was -11.77 kcal/mol.

Q: What about the “-TΔS” value (human FABP3 [2]; One Set of Sites model) of the same molecule?
A: Its value is -1.14 ± 0.05 kcal/mol.

Q: And the ΔG (human FABP3 [2]; One Set of Sites model)?
A: The ΔG was -8.63 ± 0.01 kcal/mol.

Q: And the ΔH (human FABP3 [2]; One Set of Sites model)?
A: The ΔH was -7.49 ± 0.05 kcal/mol.

Q: Which results are given for `CCCCCCCCCCCCCCCC(=O)SCCNC(=O)CCNC(=O)[C@H](O)C(C)(C)COP(=O)(O)OP(=O)(O)OC[C@H]1O[C@@H](n2cnc3c(N)ncnc32)[C@H](O)[C@@H]1OP(=O)(O)O` [C16:0-CoA, palmitoyl-CoA]?
A: Kd (human FABP3 [1]; without TX): 8.9 ± 1.2 µM; ΔG (human FABP3 [1]; without TX): -6.90 ± 0.08 kcal/mol; ΔH (human FABP3 [1]; without TX): -5.04 ± 0.09 kcal/mol; −TΔS (human FABP3 [1]; without TX): -1.86 ± 0.01 kcal/mol; N (stoichiometry) (human FABP3 [1]; without TX): 1.0; effect of detergent addition on binding to FABP3 (ITC) (human FABP3 [1]; KPi with TX detergent): completely blocked the binding; binding to FABP3 by NMR (CSPs in 2D 1H-15N HSQC) (human FABP3 [3]): strong CSPs indicative of binding

Q: Which results are given for `CCCCCCCCCCCCCCCCCC(=O)O` [C18:0, stearate]?
A: Kd (human FABP3 [1]; with 0.1% TX): 0.7 ± 0.1 µM; ΔG (human FABP3 [1]; with 0.1% TX): -8.34 ± 0.04 kcal/mol; ΔH (human FABP3 [1]; with 0.1% TX): -6.4 ± 0.4 kcal/mol; −TΔS (human FABP3 [1]; with 0.1% TX): -2.0 ± 0.4 kcal/mol; N (stoichiometry) (human FABP3 [1]; with 0.1% TX): 1.0

Q: Which Kd (human FABP3 [1]; with 0.1% TX) does the source give for `CCCCCCCC/C=C\CCCCCCCC(=O)O` [C18:1(n-9)c, oleate] here?
A: Its Kd is 0.29 ± 0.03 µM.

Q: What about the ΔG (human FABP3 [1]; with 0.1% TX) of the same molecule?
A: The ΔG was -8.93 ± 0.06 kcal/mol.

Q: What about the ΔH (human FABP3 [1]; with 0.1% TX) of the same molecule?
A: The ΔH was -10.0 ± 0.4 kcal/mol.

Q: And the “−TΔS” value (human FABP3 [1]; with 0.1% TX)?
A: Its value is 1.1 ± 0.5 kcal/mol.

Q: What about the “N (stoichiometry)” value (human FABP3 [1]; with 0.1% TX) of the same molecule?
A: The value was 1.0.

Q: What about the ΔCp (human FABP3 [4]) of the same molecule?
A: Its ΔCp is −0.29 ± 0.06 kcal∙mol^−1∙K^−1.

Q: `CCCCCCCC/C=C/CCCCCCCC(=O)O` [C18:1(n-9)t, elaidate] was tested. Which Kd (human FABP3 [1]; with 0.1% TX) did it give?
A: Its Kd is 0.21 ± 0.02 µM.

Q: What about the ΔG (human FABP3 [1]; with 0.1% TX) of the same molecule?
A: Its ΔG is -9.12 ± 0.06 kcal/mol.

Q: And the ΔH (human FABP3 [1]; with 0.1% TX)?
A: The ΔH was -8.0 ± 0.9 kcal/mol.

Q: What about the “−TΔS” value (human FABP3 [1]; with 0.1% TX) of the same molecule?
A: The value was -1.1 ± 0.9 kcal/mol.

Q: What about the “N (stoichiometry)” value (human FABP3 [1]; with 0.1% TX) of the same molecule?
A: The value was 1.0.

Q: And the ΔCp (human FABP3 [4])?
A: The ΔCp was −0.15 ± 0.02 kcal∙mol^−1∙K^−1.

Q: `CC/C=C\C/C=C\C/C=C\C/C=C\C/C=C\CCCC(=O)O` [C20:5(n-3)c, EPA] was tested. Which Kd (human FABP3 [1]; with 0.1% TX) did it give?
A: Its Kd is 1.6 ± 0.2 µM.

Q: What about the ΔG (human FABP3 [1]; with 0.1% TX) of the same molecule?
A: The ΔG was -7.90 ± 0.07 kcal/mol.

Q: What about the ΔH (human FABP3 [1]; with 0.1% TX) of the same molecule?
A: The ΔH was -17.4 ± 0.7 kcal/mol.

Q: And the “−TΔS” value (human FABP3 [1]; with 0.1% TX)?
A: Its value is 9.5 ± 0.8 kcal/mol.

Q: And the “N (stoichiometry)” value (human FABP3 [1]; with 0.1% TX)?
A: The value was 1.0.

Q: And the ΔCp (human FABP3 [4])?
A: The ΔCp was −0.37 ± 0.03 kcal∙mol^−1∙K^−1.

Q: `C[N+](C)(C)C[C@H](O)CC(=O)[O-]` [carnitine, L-carnitine] was tested. Which “binding to FABP3 by NMR (CSPs in 2D 1H-15N HSQC)” value (human FABP3 [3]) did it give?
A: Its value is “neither bind nor interact”.

Q: Which “binding to FABP3 by NMR (CSPs in 2D 1H-15N HSQC)” value (human FABP3 [3]) does the source give for Triton™ X-100 [TX] here?
A: Its value is “did not interact with the FABP3 core structure”.
